In data set [1] the test system is T. cruzi Trypo + Ama (Luc2-Tulahuen). Nature of the data set: In vitro anti-T. cruzi (trypomastigotes and amastigotes) mixture culture luciferase assay. The data set is classed as cell-based, Trypanosoma cruzi. Conditions: for inhibition at 20 µM / IC50: Trypanosoma cruzi, TULAHUEN; for inhibition at 20 µM: read-out: reduction of parasite signals (inhibition in the T. cruzi mixture culture); for reduction of parasite signals (inhibition in the T. cruzi mixture culture): first screen, compounds 20 μM (Fig. 1); for IC50: trypomastigotes mixed with NMH cells, 72 h. The method, then: Luc2-Tulahuen trypomastigotes (3 × 10^4/well) and NMH cells (5 × 10^4/well) were mixed into a 96-well white plate. Test samples and controls were added and incubated with the cells for 72 h. NP-40 (Wako Pure Chemicals Industrial Ltd, Japan) was used as the positive control, and a solvent in which the drug was dissolved as a negative. After 72 h of incubation, 100 μl of luciferin solution containing 0.6% NP-40 (Piccagene) (Toyo Ink Group, Japan) was added. Luminescence intensity was measured by a plate reader (ARVO MX 1420) (Measurement time: 1 s).
(§1) The IC50 was calculated using the following equation: IC50=10^logA/B×50-C/D-C+logB, where A is the lowest concentration at which the percentage inhibition exceeds 50%, B is the highest concentration at which percentage inhibition is less than 50%, and C and D are the percentage inhibition of the sample at concentrations B and A, respectively.

Data set [2] relates to T. cruzi Epi (Luc2-Tulahuen epimastigotes). Nature of the data set: In vitro assay for anti-epimastigote form of T. cruzi activity (luciferase). It counts as cell-based, Trypanosoma cruzi. Conditions: for IC50: Trypanosoma cruzi, TULAHUEN, epimastigotes, 72 h. On the procedure:
Luc2-Tulahuen epimastigotes (2 × 10^5/well) were dispensed into 96-well plate. After 72 h incubation, luminescence intensity was measured by adding lysis buffer with luciferin as substrate (PicaGene Luminescence Kit, Fuji Film Wako chemicals, Japan) (Measurement time: 1 s).
as §1

Data set [3] deals with T. cruzi Intracell Ama (Luc2-Tulahuen). Nature of the data set: In vitro anti-T. cruzi (intracellular amastigotes) luciferase assay in NMH cells. Conditions: for IC50: Trypanosoma cruzi, TULAHUEN, infected NMH cells, 72 h; for loss of luminescence intensity in IC50 curve, in words: NMH cells with amastigotes (Supplement Figure 2). It counts as cell-based, Trypanosoma cruzi. The method, then:
The intracellular amastigotes assay was described by Alonso-Padilla et al.. Briefly, 6 × 10^6 trypomastigotes and 3 × 10^6 host cells (NMH cells) are seeded in a 25 cm^2 flask in serum-free media (MEM + 1% newborn calf serum) to enhance the intracellular infection. After 24 h incubation, the cells were washed twice with phosphate buffered saline (PBS), then replaced by MEM + 10% newborn calf serum and incubated for another 24 h. Infected cells were detached by trypsinization. Infected host fibroblast cells (5 × 10^4/well) were seeded into a 96-well plate. Test samples and the controls were added to the mixture and incubated for 72 h. Luminescence intensity was measured by a plate reader and the Piccagene (Measurement time: 1 s).
as §1

Data set [4] has as its system mouse fibroblast cells (NMH) and human bile duct carcinoma cell line (HuH28). In words: Cytotoxicity screen of Kampo library on host cells (alamarBlue). Conditions: compounds 20 μM (Fig. 2). It counts as cell-based. For orientation: Alamar Blue is a resazurin reagent that responds to reducing activity.
Source text: Data are presented as percent reduction in intensity, indicating cell viability. Experiments were done in triplicates
The nature of data set [5]: Cytotoxicity, alamarBlue viability, HuH28 cells. It counts as cell-based. Conditions: human. The method, then:
(§2) NMH cells or HuH28 cells (1 × 10^4/well) of 100 μl aliquots were seeded on a 96-well black plate. Test samples were added and incubated for 72 h. NP-40 was added as a positive control (100% cytotoxicity) and a solvent in which the samples were dissolved as a negative control (0% cytotoxicity). Then 10 μl of alamarBlue reagent (10%, Funakoshi Co., Tokyo, Japan) for mitochondria staining was added and incubated for another 4 h. The fluorescence intensity (544 nm/590 nm) was measured with a plate reader (measurement time: 0.1 s).
(§3) The concentration required to reduce cell viability by 50% (CC50) was calculated using the following equation: CC50=10^logA/B×50-C/D-C+logB, where A is the lowest concentration at which the cell viability exceeds 50%, B is the highest concentration at which cell viability is less than 50%, and C and D are the cell viability of the sample at concentrations B and A, respectively.

Data set [6] is described as follows: Cytotoxicity, alamarBlue viability, NMH cells. The data set is classed as cell-based, mouse. Conditions: mouse. On the procedure:
as §2, §3

In data set [7] the test system is NMH cells (newborn mouse heart fibroblast cells). In words: Cytotoxicity, alamarBlue viability, NMH cells. The data set is classed as cell-based. On the procedure:
as §2, §3

Data set [8] deals with T. cruzi (Luc2-Tulahuen trypomastigotes). In words: Murine acute infection model with live bioluminescence imaging. Conditions: for luminescence intensity / parasiticidal activity compared with benznidazole group: 30 mg/kg bid i.p. vs benznidazole 100 mg/kg p.o., day 4 to 8. It counts as in vivo, BALB/c mice. The method, then:
Mice were housed and maintained in Nagasaki University Biomedical Research Center (12 h light/dark cycle). Female BALB/c mice from 6 to 10 weeks old (20–25 g) were used in all the experiments. Mice were obtained as wild type from SLC (Japan). In standard experiments, 5 × 10^3 in vitro tissue culture-derived trypomastigotes (TCTs) was intra-peritoneally (i.p.) inoculated into mouse. The mice were handled according to the international guidelines and institutional guideline of Nagasaki University for the use and maintenance of experimental animals. Ethical approval for this study was obtained from the institutional ethical review board, Nagasaki University (approval number R12005).
Mice were intra-peritoneally injected with 150 mg/kg d-luciferin (SYD labs, USA), then anesthetized using 2.5% (vol/vol) gaseous isoflurane in oxygen. To measure bioluminescence, mice were placed in an IVIS Lumina II system (Caliper Life Science, USA) and images were acquired 10 min after d-luciferin administration using LivingImage 4.3 (Caliper Life Sciences, USA). Exposure time was fixed as 5 min. Anesthesia was maintained throughout the imaging process through the nose cone. Whole body luminescence was determined by drawing the region of interest (ROI) and quantifying the bioluminescence expressed as total flux (photons/second; p/s). Coptisine chloride was administered intra-peritoneally (i.p.) at a dose of 30 mg/kg twice a day. Benznidazole (100 mg/kg) as a positive control and the drug solvent as a negative control were administered orally (p.o.) once a day. Drug was administered for 5 consecutive days from day 4 to 8 of infection. Measurements with IVIS Lumina II were performed at five different times: on day 3 of infection (the day before drug treatment), on day 9 of infection (the day after drug treatment was completed), on day 14, 28 and 40 of infection. To maintain fairness, different experimenters performed drug treatments and luminescence intensity measurements. At day 29, BALB/c mice were injected with cyclophosphamide (Sigma-Aldrich, USA) (200 mg/kg) as an immunosuppressant by i.p. and were followed by a maximum of 3 doses at 3 day intervals. The use of immunosuppressant like cyclophosphamide could help enhance the visibility of the infected lesions even after 100 dpi. In this animal study, treatment was given when the luminescence intensity was high. In addition, an immunosuppressant was administered when the difference in luminescence intensity among the three groups became small due to natural immunity of the mice.

The conditions of data set [9]: in vivo; cited from earlier work.
Another data set concerns human DHODH. Also noted: method as in PMID 29582555. Conditions: cited from earlier work.
In data set [10] the test system is DHODH in Plasmodium falciparum. Details: method as in PMID 29582555. Conditions: cited from earlier work.
The mark [11] stands for this setting: HuH28 cells (human bile duct carcinoma cell line), 72 h, read-out: CC50, HuH28, AlamarBlue viability.
Setting [12] is: NMH cells (newborn mouse heart fibroblast cells), 72 h, read-out: CC50, NMH, AlamarBlue viability.

In the case of `CC(C)=CC[C@@H](O)C1=CC(=O)c2c(O)ccc(O)c2C1=O` [Shikonin], the inhibition (commonly the share of the control response that was lost under treatment) at 20 µM in data set [1] is more than 80%.
As for `CC(C)=CC[C@H](O)C1=CC(=O)c2c(O)ccc(O)c2C1=O` [Alkanin], the “reduction of parasite signals (inhibition in the T. cruzi mixture culture)” value in data set [1] is recorded as “more than 80%”.
As to `COc1ccc2cc3[n+](cc2c1OC)CCc1cc2c(cc1-3)OCO2.[Cl-]` [Berberin chloride], the “reduction of parasite signals (inhibition in the T. cruzi mixture culture)” value in data set [1] is given as “more than 80%”.
For `COc1cc2c(cc1OC)-c1c(C)c3ccc(OC)c(OC)c3c[n+]1CC2` [Dehydrocorydaline nitrate], the IC50 – broadly, the point on the concentration scale where inhibition reaches its midpoint – in data set [2] stood at 17.3 µM; in data set [3], 7.89 µM; in data set [1], 3.47 µM. Moreover, the “cytotoxic effect on host cells, in words” value in data set [4] is “relatively lower cytotoxicity”. Further, the CC50 (commonly the concentration that lowers cell viability or growth by half) at 72 h in data set [5] was more than 100 µM; in data set [6] it was more than 40 µM. In addition, in [1], the inhibition at 20 µM is more than 80%.
For `COc1cc2c(cc1OC)-c1cc3ccc4c(c3c[n+]1CC2)OCO4` [Epiberberine chloride], the “loss of luminescence intensity in IC50 curve, in words” value in data set [3] is reported as “No loss of intensity”. Further, the IC50 in data set [3] and in [1] was more than 40 µM throughout. The CC50 at 72 h in data set [5] was more than 100 µM; in data set [6], more than 40 µM.
`O=C(Cn1ccnc1[N+](=O)[O-])NCc1ccccc1` [Benznidazole, reference compound]: the IC50 in data set [2] was 3.78 µM; in data set [3] it was 4.91 µM; in data set [1], 2.78 µM. For the same molecule, the CC50 at 72 h in data set [5] was more than 100 µM; in data set [6], more than 40 µM.
`C[C@H]1CC[C@@]2(OC1)O[C@H]1C[C@H]3[C@@H]4CC[C@@H]5C[C@@H](O[C@@H]6O[C@H](CO)[C@H](O)[C@H](O)[C@H]6O[C@@H]6O[C@H](CO)[C@@H](O)[C@H](O)[C@H]6O)CC[C@]5(C)[C@H]4CC[C@]3(C)[C@H]1[C@@H]2C` [Timosaponin A-III]: the inhibition at 20 µM in data set [1] was more than 80%.
For `COc1cc2c(cc1OC)-c1cc3ccc(OC)c(OC)c3c[n+]1CC2` [Palmatine chloride], the IC50 came to 22.3 µM in data set [2], 17.4 µM in data set [3] and 2.66 µM in [1]. Also, the “cytotoxic effect on host cells, in words” value in [4] is on record as “relatively lower cytotoxicity”. Also, the CC50 at 72 h in data set [5] (setting [11]) was more than 100 µM; in [6] (setting [12]), more than 40 µM. Moreover, the inhibition at 20 µM in data set [1] was more than 80%.
As to `c1cc2c(c3c1CC1c4cc5c(cc4CCN1C3)OCO5)OCO2` (racemic) [dl-Tetrahydro coptisine], the “loss of luminescence intensity in IC50 curve, in words” value was “No loss of intensity” in data set [3]; “No loss of intensity” in [1] (NMH cells and trypomastigotes (Supplement Figure 1)). Moreover, the IC50 in data set [3] and in data set [1] was more than 40 µM throughout. Further, the CC50 at 72 h in data set [5] (setting [11]) is more than 100 µM; in data set [6] (setting [12]), more than 40 µM.
Turning to `COc1ccc2cc3[n+](cc2c1O)CCc1cc2c(cc1-3)OCO2` [Berberrubine chloride], the figures for the IC50 in [3] and in [1] were 33.5 µM and 20.1 µM, respectively. In addition, the CC50 at 72 h in data set [5] was more than 100 µM; in data set [6], more than 40 µM. For the same molecule, the “cytotoxic effect against normal NMH cells, in words” value in [7] is on record as “slight cytotoxic effect”.
For the molecule `c1c2c(cc3c1OCO3)-c1cc3ccc4c(c3c[n+]1CC2)OCO4` [Coptisine chloride], the “relapse detected on day 40 after immunosuppressant” value in data set [8] (30 mg/kg bid i.p. day 4 to 8, compared with benznidazole 100 mg/kg p.o.) is listed as “smaller than that in the benznidazole treatment group”. In addition, the “luminescence intensity after immune suppression treatment compared with control group” value in [8] (30 mg/kg bid i.p. day 4 to 8, day 40, after cyclophosphamide) is given as “significantly reduced”. Besides, the “luminescence intensity / parasiticidal activity compared with benznidazole group” value in [8] (listed as coptisine) was “equivalent parasiticidal activity”; in data set [8] (listed as coptisine chloride), “slightly higher than that of the benznidazole group”. In data set [8] (30 mg/kg bid i.p., day 4 to 8 of infection, after 5-day treatment), the “luminescence intensity of treated group compared with untreated group” value is recorded as “significantly reduced”. Moreover, the “adverse events during in vivo experiment” value in [8] (BALB/c mice, 30 mg/kg bid i.p.) is “did not see any significant adverse events”. The “oral bioavailability, in words” value in [9] is reported as “low”. Also, the IC50 in data set [2] worked out at 15.1 µM; in [3], 4.98 µM; in data set [1], 4.48 µM. Besides, the “effectiveness against epimastigotes relative to benznidazole” value in data set [2] (from IC50 15.1 µM vs 3.78 µM) is on record as “fourfold less effective”. The “cytotoxic effect on host cells, in words” value in data set [4] is listed as “relatively lower cytotoxicity”. Further, the results for the CC50 at 72 h in data set [5] (setting [11]) and in data set [6] (setting [12]) were more than 100 µM and more than 40 µM, respectively. Also, in data set [1], the inhibition at 20 µM was more than 80%. The “inhibitory activity against human DHODH, in words” value with human DHODH is on record as “weak inhibitory activity”. In addition, in [10], the “inhibition of DHODH in Plasmodium falciparum, in words” value is listed as “non-competitively inhibits”.

The record behind these values is paper PMC9976467, “Anti-Trypanosoma cruzi activity of Coptis rhizome extract and its constituents” (Tropical Medicine and Health, 2023).
